Data taken from patent US11613785B2, “Predictive and diagnostic methods for prostate cancer” (OnkosXcel Therapeutics, LLC, priority 2017, dated 2023).

How the values were obtained:
[1] = test system: TRAMP mouse model of NEPC; assay: Efficacy study (tumor volume) in transgenic mouse model of NEPC (TRAMP mouse); assay type: in vivo; details: TRAMP mice; talabostat mesylate 20 μg qd p.o.; PD-1 antagonist 10 mg/kg i.p. twice weekly
Source text: Efficacy Study of Talabostat Mesylate and PD-1 Antagonist in Transgenic Mouse Model of NEPC (TRAMP Mouse)
Reagents and Antibodies: RPMI-1640 medium (Catalog No.: A1049101), Glutamax (Catalog No.: 35050061), Trypsin-EDTA (0.25%) (Catalog No.: 25200-056), Penicillin-Streptomycin (Catalog No.: 15070-063), HBSS (Catalog No.: 14175-095) are procured form Gibco, while Fetal bovine serum (FBS) (Catalog No.: 004-001-1A) is purchased from Biological Industries. The anti-PD-1 antibody (PD-1 antagonist (clone: RMPI-14, Catalog no: BE0146)) is supplied by Bioxcell at 6.61 mg/ml. Stock solutions of PD-1 antagonist, at 1 mg/ml concentrations are prepared and kept at 4° C. prior to use. Dosing solutions of PD-1 antagonist are prepared freshly at a concentration of 1 mg/ml, before every administration in sterile phosphate buffered saline (PBS), pH 7.0 and administered a dose of 10 mg/kg, intraperitoneally (i.p) into, 20 g mouse. […]
Tumor size and body weights are measured twice weekly. Tumor volumes are measured twice per week in two dimensions using a caliper, and the volume are expressed in mm^3 using the formula: V=0.5 a×b^2 where a and b are the length and width of the tumor, respectively. […] Tumor volume is expressed in mm^3, is measured with caliper on day 5, 8, 12, 15, 19, 22, 26 and day 29.

[2] = test system: NK cells, macrophages, FoxP3+ Tregs in tumor; assay: Immunophenotyping of tumor samples by RT-PCR; assay type: in vivo; details: TRAMP mouse tumor samples
Method: Immunophenotyping of tumor samples by RT-PCR: Tumor RNA samples are extracted from the frozen tumor tissues using the Trizol reagent. Reverse transcription is carried out using a kit from Takara (Catalog No. #RR047A). Quantitative PCR are conducted using a master mix from Invitrogen (Catalog No. #4309155) on an ABI 7900HT Fast Real-Time PCR System. The results are analyzed using a Delta Ct Method. The marker gene and respective oligo sequence used in this study are from the NIH q-RT-PCR primer database (mouseqprimerdepot.nih.gov) these are associated with the Ncrl and Pfrl (NK cell receptor) a marker characteristic to the NK cell and their activation respectively, while the Gmbz is meant for quantifying the release of granzyme B and the FoxP3 associated with CD25+CD4+ Tregs. Statistical Analysis: A one-way ANOVA is also used to assess the statistical difference between the vehicle group and all other groups in the blood sample immune-phenotyping and q-RT-PCR assay as well as on the microarray samples on the indicated day. All the data is analyzed using GraphPad Prism 5. p<0.05 is statistically significant (*, p<0.05; **, p<0.01; ***, p<0.001).

talabostat mesylate
tumor reduction (tumor volume) [1]: significant effect
FoxP3+ Treg population (relative mRNA expression of FoxP3) in tumor samples [2]: reduction in the FoxP3 population
